Assay results from patent US20250123282A1, “METHODS FOR EVALUATION AND TREATMENT OF TYROSINE KINASE INHIBITOR (TKI)-RESISTANT ACUTE MYELOID LEUKEMIA” (LOMA LINDA UNIVERSITY, priority 2021, published 2025).

Experiments:
[1] = test system: MV4-11 blasts; experiment: GILT combined with MIF inhibitor or CXCR2 inhibitor on MV4-11 blasts in vitro (FACS); assay type: cell-based, human; details: dose-dependent experiments with or without 80 nM GILT
Description: (§1) Whether targeting the MIF-CXCR2 signaling pathway would effectively treat AML blasts were investigated. First, the combination of GILT with ribosomal protein S19 (RPS19) on MV4-11 blasts was tested in vitro. RPS19, a MIF inhibitor, has been reported to suppress cisplatin-activated MIF-CD74-NFκB signaling pathway in acute kidney injury. […] The combination of 80 nM GILT with 50 uM SB225002, a CXCR2-inhibitor (CXCR2-I) on MV4-11 blasts in vitro were examined. […] The anti-leukemic effect of combining GILT with CXCR2-I on primary BMMNC ex vivo were examined. […] There may be alternative cytokine pathways compensating for the defect of MIF-CXCR2 pathways.
(§2) For MIF in vitro experiments, different doses of MIF were added to 1 ml of 1×10^6 MV4-11 cells or RAW264.7 cells for each experimental group in 24-well plates. Two days after the one dose treatment, cells were then collected for either analyses by FACS and qPCR. As combination agents to treat blasts in vitro or ex vivo, one dose of 80 nM GILT with one dose of different inhibitors were added to 1 ml of 1×10^6 MV4-11 cells or 1 ml of 0.5-1×10^6 primary AML BMMNC for each experimental group in 24-well plates. Dose-dependent experiments of CXCR2 inhibitor and NFκB inhibitor with or without 80 nM GILT were performed. […] Three days after the one dose treatment, cells were then collected for either analyses by FACS and qPCR.
(§3) Flow Cytometry (FACS). Cells were harvested and examined for the expression of cell surface biomarkers (CD) and intracellular proteins by multichromatic FACS as previously described. About 1×10^4˜10^6 cells in 100 μl FACS buffer (PBS containing 1% FBS and 0.05% sodium azide) were stained with various fluorescence-conjugated antibodies specific for the desired cell surface proteins at 4° C. for 30 min. The surface-stained cells were then fixed and permeabilized using the appropriate reagents (e.g. the BD Pharmingen Cytofix/Cytoperm buffer) and stained with different fluorescence-conjugated antibodies specific for the desired intracellular proteins at 4° C. for 2 hours in the permeabilizing buffer (e.g. the BD Perm/Wash buffer). Concentrations of the Abs were used per the manufacturers' recommendations. Finally, the cells were washed twice in the permeabilizing buffer and twice in the FACS buffer before being analyzed on the BD FACSAria II. Data was analyzed using the FlowJo software (Tree Star Inc., Ashland, OR).

[2] = test system: primary AML BMMNC; experiment: Ex vivo combination treatment of primary AML BMMNC (FACS, imaging, qPCR); assay type: cell-based, human; details: newly diagnosed AML, Patient #5; 80 nM GILT, 50 uM BAY11-7821
Description: as §1
The combination of 80 nM GILT and 50 uM BAY11-7821 (a NFκB-I) was tested as a novel therapeutic approach for AML.
Next, the anti-leukemic effect of the combination was examined on primary BMMNC from refractory AML patients (Patient #7, Table 4).
Human Samples. AML bone marrow (BM) mononuclear cells (BMMNC) (Patients #1-7, Table 4) were obtained from the City of Hope National Medical Center (COHNMC). All donor patients signed an informed consent form. Sample acquisition was approved by the Institutional Review Boards at the LLUMC and the COHNMC in accordance with an assurance filed with and approved by the Department of Health and Human Services, and it met all requirements of the Declaration of Helsinki.
as §2, §3
RNA Isolation and Real-Time Polymerase Chain Reaction (qPCR) analysis. MV4-11 and MOLM-14 cells were cultured with the presence of TKI drugs for 72 hours or re-plated 28 days after the treatment of TKI drugs. Cells were isolated for RNA isolation and qPCR analysis as previously described. Total RNA was isolated using the RNeasy Micro Kit (Qiagen) according to the manufacturer's instruction. First-strand cDNA was synthesized using the SuperScript III Reverse Transcriptase (Invitrogen; Life Technologies). With an Applied Biosystems 7900HT Real-Time PCR machine, qPCR was performed and analyzed using known primers for the specific markers. The PCR conditions were 10 minutes at 95° C. followed by 40 cycles of 10 seconds at 95° C. and 15 seconds at 60° C. The relative expression level of a gene was determined using the ΔΔCt method and normalized to GAPDH.

[3] = test system: MOLM-14 cells; experiment: FACS of TKI-treated MOLM-14 cells in vitro (viable blasts, pBAD); assay type: cell-based, human; details: 3 days after the treatment
Description: (§4) The AML cells were analyzed at different time points after exposure to TKI (3 days, 10 days, 20 days, and 28 days). […] After 3 days, FACS of the surface markers and intracellular proteins, including CD14, CD33, CD44, and Ki67, were performed. FIGS. 1A-1E depicts therapeutic effect of different TKIs on MV4-11 and MOLM-14 cells in vitro (N=6). […] The circles indicate the group of viable blasts located in a FACS plot and green arrows indicate the dying tendency of blasts which will become positive for viability dye during the next few days. FIGS. 1C and 1D are graphical representations of the cumulative FACS percentage data of viable MV4-11 and MOLM-14 cells. *P<0.05. […]
as §3, with “Cells were harvested and examined for the expression of cell surface biomarkers (CD) and intracellular proteins by multichromatic FACS as previously described.” left out, “Concentrations of the Abs were used per the manufacturers' recommendations.” left out, “Data was analyzed using the FlowJo software (Tree Star Inc., Ashland, OR).” left out

[4] = test system: MOLM-14 cells; experiment: Phase-bright imaging of re-growth of TKI-treated MOLM-14; assay type: cell-based, human; details: 10 days after TKI treatment
Excerpt: (§5) To follow the cell fate of TKI-treated MV4-11 and MOLM-14, culturing of blasts were continued by performing medium change every 2-3 days. […] The BAD protein is a pro-apoptotic member of the BCL-2 gene family, which is involved in initiating apoptosis. Dephosphorylated BAD is pro-apoptotic by binding BCL-2 and inactivating BCL-2, while phosphorylated BAD (pBAD) is anti-apoptotic by leaving BCL-2 free to inhibit BAX-triggered apoptosis.
Small Molecular Inhibitors and in vitro & ex vivo Treatment. […] The dose of 80 nM for the four TKIs was selected based on their dose-dependent cytotoxicity in previous reports. […] Both GILT and QUIZ were reported to start to suppress the tumorigenic clustering and c-Kit at the dose of 80 nM. […] The combination of 5 μM 5-Azacitidine (AZA) and 80 nM 1α,25-Dihydroxyvitamin D3 (VD3) was added to the experimental group similar to the previous report. As combination agents to treat blasts in vitro, one dose of 80 nM GILT with one dose of either 100 nM Venetoclax (BCL2 inhibitor), 10 μM (R)-Lisofylline (STAT4 inhibitor), 100 nM AZD1208 (PIM inhibitor), 500 nM PF-06826647 (TYK2 inhibitor), or 500 nM AT9283 (JAK2/3 inhibitor) were added to 1 ml of 1×10^6 cells for each experimental group in 24 well plates. Three days after the one dose treatment, cells were then collected for either analyses by FACS and qPCR, or re-plated into 24 well plates for continued culture. […]

[5] = test system: MV4-11 cells; experiment: FACS of TKI-treated MV4-11 cells in vitro (viable blasts, Ki67, pBAD); assay type: cell-based, human; details: 3 days after the treatment
Description: as §4
as §3, with “Cells were harvested and examined for the expression of cell surface biomarkers (CD) and intracellular proteins by multichromatic FACS as previously described.” left out, “Concentrations of the Abs were used per the manufacturers' recommendations.” left out, “Data was analyzed using the FlowJo software (Tree Star Inc., Ashland, OR).” left out

[6] = test system: MV4-11; details: 100 nM, 72-hour treatment in vitro; cited from earlier work
[7] = test system: MV4-11 cells; experiment: Phase-bright imaging of re-growth of TKI-treated MV4-11; assay type: cell-based, human
Excerpt: as §5
(§6) Small Molecular Inhibitors and in vitro & ex vivo Treatment. […] The dose of 80 nM for the four TKIs was selected based on their dose-dependent cytotoxicity in previous reports. […] Both GILT and QUIZ were reported to start to suppress the tumorigenic clustering and c-Kit at the dose of 80 nM. […] The combination of 5 μM 5-Azacitidine (AZA) and 80 nM 1α,25-Dihydroxyvitamin D3 (VD3) was added to the experimental group similar to the previous report. As combination agents to treat blasts in vitro, one dose of 80 nM GILT with one dose of either 100 nM Venetoclax (BCL2 inhibitor), 10 μM (R)-Lisofylline (STAT4 inhibitor), 100 nM AZD1208 (PIM inhibitor), 500 nM PF-06826647 (TYK2 inhibitor), or 500 nM AT9283 (JAK2/3 inhibitor) were added to 1 ml of 1×10^6 cells for each experimental group in 24 well plates. Three days after the one dose treatment, cells were then collected for either analyses by FACS and qPCR, or re-plated into 24 well plates for continued culture. At different time points, re-plated cells were collected for analyses by FACS and qPCR. Medium change was performed every 2-3 days.
Imaging Acquisition. Phase-bright images were taken using an Olympus 1X71 inverted microscope and were processed using an Olympus cellSens Dimension 1.15 Imaging Software.

[8] = test system: MV4-11 cells; experiment: FACS time course of CD44+pBAD+ and Ki67+CD33+CD44+ populations in TKI-treated MV4-11; assay type: cell-based, human
Excerpt: as §5, §6, §3

[9] = test system: RAW264.7 (a macrophage cell line); experiment: Recombinant human MIF added to RAW264.7 cultures (FACS Ki67); assay type: cell-based; details: 5 ng/ml MIF; 2 days
Description: To examine the role of MIF in the proliferation of AML blasts, different doses of recombinant human MIF peptides were added to the cell cultures of MV4-11 (AML blast cell line). […] To investigate how MIF affects immune cells, MIF was tested on RAW264.7 (a macrophage cell line). […] The findings are consistent with a previous report that primary AML blasts constitutively express MIF, stimulating bone marrow mesenchymal cells to release CXCL8 (IL-8), a ligand that also binds to CXCR2, to sustain blasts' proliferation. In addition, CXCL1/5/8 were routinely and highly released (a median level >1000 pg/mL) in the supernatants of culturing naïve AML patient cells ex vivo. […]
as §3, with “Cells were harvested and examined for the expression of cell surface biomarkers (CD) and intracellular proteins by multichromatic FACS as previously described.” left out, “Concentrations of the Abs were used per the manufacturers' recommendations.” left out, “Data was analyzed using the FlowJo software (Tree Star Inc., Ashland, OR).” left out

[10] = test system: MV4-11 cells; experiment: Recombinant human MIF added to MV4-11 cultures (FACS Ki67, qPCR); assay type: cell-based
Description: To examine the role of MIF in the proliferation of AML blasts, different doses of recombinant human MIF peptides were added to the cell cultures of MV4-11 (AML blast cell line). […] To investigate how MIF affects immune cells, MIF was tested on RAW264.7 (a macrophage cell line). […] The findings are consistent with a previous report that primary AML blasts constitutively express MIF, stimulating bone marrow mesenchymal cells to release CXCL8 (IL-8), a ligand that also binds to CXCR2, to sustain blasts' proliferation. In addition, CXCL1/5/8 were routinely and highly released (a median level >1000 pg/mL) in the supernatants of culturing naïve AML patient cells ex vivo.
For MIF in vitro experiments, different doses of MIF were added to 1 ml of 1×10^6 MV4-11 cells or RAW264.7 cells for each experimental group in 24-well plates. Two days after the one dose treatment, cells were then collected for either analyses by FACS and qPCR. […]
as §3, with “Cells were harvested and examined for the expression of cell surface biomarkers (CD) and intracellular proteins by multichromatic FACS as previously described.” left out, “Concentrations of the Abs were used per the manufacturers' recommendations.” left out
RNA Isolation and Real-Time Polymerase Chain Reaction (qPCR) analysis. […] With an Applied Biosystems 7900HT Real-Time PCR machine, qPCR was performed and analyzed using known primers for the specific markers. […] The relative expression level of a gene was determined using the ΔΔCt method and normalized to GAPDH.

[11] = MV4-11, 10 days after TKI treatment
[12] = MV4-11, 20 days after TKI treatment

Cc1ccc(S(=O)(=O)C=CC#N)cc1 [NFκB-I, BAY11-7082 (BAY11-7821)]
most effective dose on MV4-11 based on the FACS analyses [1]: 50 µM
percentage of Ki67+CD33+ proliferating blasts [2]: 25%
percentage of viable CD33+CD13+ primary blasts [2]: 0.14%

CNC(=O)c1cc(Oc2ccc(NC(=O)Nc3ccc(Cl)c(C(F)(F)F)c3)cc2)ccn1 [SORA, Sorafenib]
pBAD expression in MOLM-14 (FACS) [3]: significant increase
re-growth / tumorigenic clusters of MOLM-14 [4]: grew confluent
pBAD expression in MV4-11 (FACS) [5]: significant increase
apoptosis and cell cycle arrest in MV4-11 [6]: significantly induce
newly formed blast clusters (morphology) ([7]; 3 days after TKI treatment): observed
re-growth / tumorigenic clusters of MV4-11 ([7]; 10 days after TKI treatment): grew confluent
population of viable CD44+pBAD+ cells [8, 11]: 0.24%
population of viable Ki67+CD33+CD44+ cells [8, 11]: 2.54%
population of viable CD44+pBAD+ cells [8, 12]: 0.8%
population of viable Ki67+CD33+CD44+ cells [8, 12]: 1.62%
population of viable Ki67+CD33+CD44+ cells ([8]; MV4-11, 28 days after TKI treatment): 2.82%

B1: MIF: recombinant human macrophage migration inhibitory factor (Peprotech 300-69) (protein, UniProt P14174 2-115, looked up)
Macrophage migration …: PMFIVNTNVPRASVPDGFLSELTQQLAQATGKPPQYIAVHVVPDQLMAFGGSSEPCALCSLHSIGKIGGAQNRSYSKLLCGLLAERLRISPDRVYINYYDMNAANVGWNNSTFA
RAW264.7 proliferation (Ki67) [9]: effectively suppressed
MV4-11 proliferation (percentage of Ki67+) ([10]; 5 ng/ml MIF, the lowest dose, 2 days): induce MV4-11's proliferation
gene expressions of CXCL1, CXCL5, CXCL8 (IL-8), CDK4 and CYCLIN E1 ([10]; MV4-11, different doses of MIF, qPCR): effectively induce
CXCR2 expression in MV4-11 blasts ([10]; exogenous recombinant MIF in vitro): effectively induced
